Assay results as given in PubChem BioAssay AID2060343 (Molecular Pharmacology Branch, DTP, NCI, 2025).

Test system: 138582-337-R-J1-PDC spheroids with HUVEC/MSC, viability
Assay: Anticancer human tumor 138582-337-R-J1-PDC patient-derived Merkel cell tumor cell line growth inhibition [IpAb]
Details: for IC50: curve of first compound; for viability, T/C: stronger effect = lower value
Outline: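 Multi-cell spheroids of 60% tumour cells, 25% HUVEC and 15% MSC in ultra-low-attachment U-bottom wells, treated with agents combined with ipatasertib or abemaciclib. Half-log ranges top out near clinical Cmax, or 10 microM when Cmax is unknown.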

[1] = second compound 0.01 µM, first compound 0.00949 µM
[2] = second compound 0.01 µM, first compound 0.03 µM
[3] = second compound 0.01 µM, first compound 0.0949 µM
[4] = second compound 0.01 µM, first compound 0.3 µM
[5] = second compound 0.0316 µM, first compound 0.00949 µM
[6] = second compound 0.0316 µM, first compound 0.03 µM
[7] = second compound 0.0316 µM, first compound 0.0949 µM
[8] = second compound 0.0316 µM, first compound 0.3 µM
[9] = second compound 0.1 µM, first compound 0.00949 µM
[10] = second compound 0.1 µM, first compound 0.03 µM
[11] = second compound 0.1 µM, first compound 0.0949 µM
[12] = second compound 0.1 µM, first compound 0.3 µM
[13] = second compound 0.316 µM, first compound 0.00949 µM
[14] = second compound 0.316 µM, first compound 0.03 µM
[15] = second compound 0.316 µM, first compound 0.0949 µM
[16] = second compound 0.316 µM, first compound 0.3 µM
[17] = second compound 1 µM, first compound 0.00949 µM
[18] = second compound 1 µM, first compound 0.03 µM
[19] = second compound 1 µM, first compound 0.0949 µM
[20] = second compound 1 µM, first compound 0.3 µM
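Further: spheroids exposed to compounds for seven days.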
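Wherever viability, T/C is given: 100% = DMSO vehicle control viability.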

Compound	IC50 (second compound 0.01 µM) [µM]	IC50 (second compound 0.0316 µM) [µM]	IC50 (second compound 0.1 µM) [µM]	IC50 (second compound 0.316 µM) [µM]	IC50 (second compound 1 µM) [µM]	viability, T/C [1] [%]	viability, T/C [2] [%]	viability, T/C [3] [%]	viability, T/C [4] [%]	viability, T/C [5] [%]	viability, T/C [6] [%]	viability, T/C [7] [%]	viability, T/C [8] [%]	viability, T/C [9] [%]	viability, T/C [10] [%]	viability, T/C [11] [%]	viability, T/C [12] [%]	viability, T/C [13] [%]	viability, T/C [14] [%]	viability, T/C [15] [%]	other results
CC(=O)c1c(C)c2cnc(Nc3ccc(N4CCNCC4)cn3)nc2n(C2CCCC2)c1=O + CCN1CCN(Cc2ccc(Nc3ncc(F)c(-c4cc(F)c5nc(C)n(C(C)C)c5c4)n3)nc2)CC1	> 0.3	> 0.3	> 0.3	> 0.3	> 0.3	88.1	92.5	93.4	86.6	79.7	89	88.3	81.8	85.1	88.7	82	75	85.3	79.7	87.6	viability, T/C (second compound 0.01 µM, first compound 0.000949 µM): 97.9%; viability, T/C (second compound 0.01 µM, first compound 0.003 µM): 91.1%; viability, T/C (second compound 0.0316 µM, first compound 0.000949 µM): 91.2%; viability, T/C (second compound 0.0316 µM, first compound 0.003 µM): 89.5%; viability, T/C (second compound 0.1 µM, first compound 0.000949 µM): 84.6%; viability, T/C (second compound 0.1 µM, first compound 0.003 µM): 91.5%; viability, T/C (second compound 0.316 µM, first compound 0.000949 µM): 93.6%; viability, T/C (second compound 0.316 µM, first compound 0.003 µM): 86.6%; viability, T/C [16]: 79.7%; viability, T/C (second compound 1 µM, first compound 0.000949 µM): 99.4%; viability, T/C (second compound 1 µM, first compound 0.003 µM): 102%; viability, T/C [17]: 93.3%; viability, T/C [18]: 88.6%; viability, T/C [19]: 92.6%; viability, T/C [20]: 84.7%
CC(C)(C)c1cnc(CSc2cnc(NC(=O)C3CCNCC3)s2)o1 + CCN1CCN(Cc2ccc(Nc3ncc(F)c(-c4cc(F)c5nc(C)n(C(C)C)c5c4)n3)nc2)CC1	0.145	0.124	0.12	0.0995	0.0677	107	109	79	0.85	96.7	103	64.9	0.68	91.6	91.3	62.4	0.43	92.9	96.5	52.1	viability, T/C (second compound 0.01 µM, first compound 0.949 µM): 0.5%; viability, T/C (second compound 0.01 µM, first compound 3 µM): 0.66%; viability, T/C (second compound 0.0316 µM, first compound 0.949 µM): 0.35%; viability, T/C (second compound 0.0316 µM, first compound 3 µM): 0.65%; viability, T/C (second compound 0.1 µM, first compound 0.949 µM): 0.5%; viability, T/C (second compound 0.1 µM, first compound 3 µM): 0.5%; viability, T/C [16]: 0.57%; viability, T/C (second compound 0.316 µM, first compound 0.949 µM): 0.45%; viability, T/C (second compound 0.316 µM, first compound 3 µM): 0.7%; viability, T/C [17]: 88.7%; viability, T/C [18]: 94.7%; viability, T/C [19]: 32.7%; viability, T/C [20]: 0.63%; viability, T/C (second compound 1 µM, first compound 0.949 µM): 0.5%; viability, T/C (second compound 1 µM, first compound 3 µM): 0.78%
